The assay addresses Envelope glycoprotein gp160 (Human immunodeficiency virus 1, UniProt Q6QLK5). Description: cell-free HIV fusion peptide-binding blockers – biochemical, uHTS, fluorescence dequenching, […] (AID 1986).

Active and inactive are the calls of the source. No stated cut-off is given here; in the data, actives have a measured IC50 and inactives only a lower limit.

Sequence of Envelope glycoprotein gp160 (Q6QLK5 whole entry, the tested form may be a part): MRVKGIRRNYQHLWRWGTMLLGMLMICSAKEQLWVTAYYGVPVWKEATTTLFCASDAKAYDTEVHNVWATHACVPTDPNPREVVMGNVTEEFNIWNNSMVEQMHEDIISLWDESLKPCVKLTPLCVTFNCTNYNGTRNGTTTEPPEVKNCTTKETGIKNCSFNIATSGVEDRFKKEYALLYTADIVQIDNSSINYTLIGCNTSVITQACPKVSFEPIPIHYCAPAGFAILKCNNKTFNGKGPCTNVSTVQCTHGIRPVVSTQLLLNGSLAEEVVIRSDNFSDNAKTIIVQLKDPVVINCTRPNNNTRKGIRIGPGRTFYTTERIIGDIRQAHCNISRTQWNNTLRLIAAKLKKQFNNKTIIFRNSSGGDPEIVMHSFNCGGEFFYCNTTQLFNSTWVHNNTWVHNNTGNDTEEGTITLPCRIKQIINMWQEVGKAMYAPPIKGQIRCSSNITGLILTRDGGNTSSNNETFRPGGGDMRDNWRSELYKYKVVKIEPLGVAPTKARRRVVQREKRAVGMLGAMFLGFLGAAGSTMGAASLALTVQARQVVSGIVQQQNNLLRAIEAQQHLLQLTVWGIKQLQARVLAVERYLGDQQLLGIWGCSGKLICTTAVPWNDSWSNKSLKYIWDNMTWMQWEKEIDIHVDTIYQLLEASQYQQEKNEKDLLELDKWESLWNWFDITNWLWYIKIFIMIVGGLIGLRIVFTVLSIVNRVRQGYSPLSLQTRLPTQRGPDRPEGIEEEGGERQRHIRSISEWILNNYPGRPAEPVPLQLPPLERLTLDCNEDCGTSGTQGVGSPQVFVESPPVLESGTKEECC

In general, IC50 refers to the concentration needed to halve the response being measured. As for `CN(C)S(=O)(=O)c1cccc(-c2nn(-c3ccccc3)cc2/C=C2\SC(=S)NC2=O)c1`, the IC50 is 11.8 µM (active).
For the compound `COc1cc(C(c2c(C(=O)O)[nH]c3ccccc23)c2c(C(=O)O)[nH]c3ccccc23)ccc1OCc1ccccc1`, the IC50 is 7.01 µM (active).

(Values after ChEMBL document CHEMBL1201862, “PubChem BioAssay data set” (2004).)
